Source: ChEMBL document CHEMBL1155817, “Hanultarin, a cytotoxic lignan as an inhibitor of actin cytoskeleton polymerization from the seeds of Trichosanthes kirilowii” (Bioorg Med Chem, 2008)
Converted amounts (≈) assume the structure as drawn. The source made the active and inactive calls. The rule behind the calls is not given here.

What was measured:
HaCaT [1] = assay: Inhibition of actin polymerization in human HaCaT cells assessed as aggregate-like structure at 12 ug/mL by immunofluorescence technique; assay type: cell-based
A549 = assay: Cytotoxicity against human A549 cells after 48 hrs by SRB assay; assay type: functional, cell-based; details: A549, 48 h
SK-MEL-2 = assay: Cytotoxicity against human SK-MEL-2 cells after 48 hrs by SRB assay; assay type: functional, cell-based; details: SK-MEL-2, 48 h
[2] = Cytotoxicity against mouse B16F1 cells after 48 hrs by SRB assay; assay type: functional, cell-based; details: B16-F1, 48 h
HaCaT [3] = assay: Inhibition of actin polymerization in human HaCaT cells assessed as aggregate-like structure at 40 ug/mL by immunofluorescence technique; assay type: cell-based
HaCaT [4] = assay: Inhibition of actin polymerization in human HaCaT cells assessed as aggregate-like structure at 1 ug/mL by immunofluorescence technique; assay type: cell-based
HaCaT [5] = assay: Inhibition of actin polymerization in human HaCaT cells assessed as aggregate-like structure at 3.5 ug/mL by immunofluorescence technique; assay type: cell-based
HaCaT [6] = assay: Inhibition of actin polymerization in human HaCaT cells assessed as aggregate-like structure by immunofluorescence technique; assay type: cell-based

SMILES	Activity (HaCaT [1])	IC50 (A549) [µg/mL]	IC50 (SK-MEL-2) [µg/mL]	IC50 [2] [µg/mL]	Activity (HaCaT [3])	Activity (HaCaT [4])	Activity (HaCaT [5])	Activity (HaCaT [6])
COc1cc(/C=C/C(=O)OC[C@H](Cc2ccc(O)c(OC)c2)[C@H](COC(=O)/C=C/c2ccc(O)c(OC)c2)Cc2ccc(O)c(OC)c2)ccc1O	Active	12 (≈ 16.8 µM)	10 (≈ 14 µM)	12 (≈ 16.8 µM)	–	–	–	–
COc1cc([C@H]2OC(=O)[C@H]3[C@@H]2CO[C@@H]3c2ccc(O)c(OC)c2)ccc1O	–	> 40	20 (≈ 53.7 µM)	13 (≈ 34.9 µM)	inactive	–	–	–
C=C1[C@@H](C)[C@H]2[C@H](Cc3ccccc3)NC(=O)[C@]23[C@H](OC(C)=O)/C=C/[C@@](C)(O)C(=O)[C@@H](C)C/C=C/[C@H]3[C@@H]1O	–	–	–	–	–	Active	–	–
COc1cc([C@@H]2OC[C@@H]3[C@H]2CO[C@H]3c2ccc(O)c(OC)c2)ccc1O [(+)-PINORESINOL]	–	> 40	> 40	> 40	inactive	–	–	–
COc1cc(C[C@@H](CO)[C@H](CO)Cc2ccc(O)c(OC)c2)ccc1O [(+)-SECOISOLARICIRESINOL]	–	> 40	> 40	> 40	inactive	–	–	–
COc1cc(/C=C/C(=O)OC[C@H](Cc2ccc(O)c(OC)c2)[C@H](CO)Cc2ccc(O)c(OC)c2)ccc1O [HANULTARIN]	–	3 (≈ 5.57 µM)	3 (≈ 5.57 µM)	13 (≈ 24.1 µM)	–	–	Active	Dose-dependent effect
